From patent US6458781B1, “Substituted diarylalkyl amides as calcium channel antagonists” (priority 1998, dated 2002)
Counter-ions that a name gives are not always drawn.

Assays:
[1] = tested on: Na+ channels in SCG neurons; experiment: Sodium current in superior cervical ganglion neurons (whole-cell voltage clamp); format: cell-based, rat
Method: Electrophysiological techniques were used to measure the effects of experimental compounds on voltage-gated Ca^2+, […] , and K^+ channels. […] Sodium and potassium channel currents were measured from acutely dissociated SCG neurons.
Dissociation of the neurons from the ganglia was accomplished using a 30 to 45 minute treatment in 0.25% trypsin, similar to methods outlined in Higgins, et al. (see Higgins D. et al. “Tissue culture of mammalian autonomic neurons.” In Banker G. and Goslin K. (Eds), Culturing Nerve Cells, Cambridge, Mass., MIT Press [1991]).
Ca^2+, Na^+, and K^+ channel currents in SCG neurons were measured using conventional single electrode whole-cell voltage-clamp techniques, outlined in Hamill et al., (see Hamill O. P. et al. “Improved patch-clamp techniques for high resolution current recordings from cells and cell-free membrane patches.”Pflugers Arch., 1981;391:85-100). For Ca^2+ channel experiments, the external bathing solution contained tetraethylammonium chloride (100 mM), choline chloride (52 mM), NaCl (15 mM), HEPES (10 mM), glucose (5.6 mM), CaCl2 (2 mM), and MgCl2 (0.8 mM), pH 7.35 with KOH; with the internal pipette solution containing cesium methane sulfonate (140 mM), EGTA (10 mM), and HEPES (10 mM), supplemented with 5 mM Mg^2+-ATP on the day of the experiment, pH 7.4 with CsOH. For Na^+ and K^+ channel experiments, the external bathing solution contained NaCl (150 mM), KCl (5 mM), MgCl2 (1.1 mM), CaCl2 (2.6 mM), Na-HEPES (10 mM), and glucose (10 mM), pH 7.4; with the internal pipette solution containing KCl (80 mM), K-gluconate (50 mM), HEPES (10 mM), and EGTA (10 mM), pH 7.4 with KOH. Experimental compounds were diluted into the external solution and applied to the soma of cells by local perfusion from large diameter (20-50 μm) glass micropipettes or from a U-tube applicator.
For Na^+ and K^+ channel currents, following the determination of the I/V relationship for each cell in control solution, currents were evoked from a holding potential between −65 and −55 mV by stepping every 10 sec to a test potential of either 0 mV for Na^+ or +50 mV for K^+ current for a duration of 35 msec. Peak inward current was measured for Na^+ and sustained current for K^+ channel currents. […] Test compounds were applied until steady-state block was achieved. Data were expressed as percent inhibition of control amplitudes for Na^+ and K^+ channel currents.

[2] = molecular target: T1, L-type calcium channels in A10 cells (Rattus norvegicus, UniProt P22002); experiment: L-type Ca2+ channel blocking potency in A10 cells (FLIPR); format: cell-based; conditions: read-out: FLPA10 IC50
T1 construct: which endogenously expresses L-type calcium channels; host or cells: A10 rat embryonic thoracic aorta smooth muscle cells
Summary of the method: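 Rat A10 aortic smooth-muscle cells endogenously expressing L-type channels were loaded with Oregon Green BAPTA-1 and preincubated with compound for 5 min at 35 °C. Cells were then depolarized with 140 mM KCl buffer. Summed fluorescence above basal over 120 s gave % inhibition versus buffer-treated stimulated wells, with zero influx defined by 1.0×10^−6 M nitrendipine.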

T1 sequence (P22002 whole entry): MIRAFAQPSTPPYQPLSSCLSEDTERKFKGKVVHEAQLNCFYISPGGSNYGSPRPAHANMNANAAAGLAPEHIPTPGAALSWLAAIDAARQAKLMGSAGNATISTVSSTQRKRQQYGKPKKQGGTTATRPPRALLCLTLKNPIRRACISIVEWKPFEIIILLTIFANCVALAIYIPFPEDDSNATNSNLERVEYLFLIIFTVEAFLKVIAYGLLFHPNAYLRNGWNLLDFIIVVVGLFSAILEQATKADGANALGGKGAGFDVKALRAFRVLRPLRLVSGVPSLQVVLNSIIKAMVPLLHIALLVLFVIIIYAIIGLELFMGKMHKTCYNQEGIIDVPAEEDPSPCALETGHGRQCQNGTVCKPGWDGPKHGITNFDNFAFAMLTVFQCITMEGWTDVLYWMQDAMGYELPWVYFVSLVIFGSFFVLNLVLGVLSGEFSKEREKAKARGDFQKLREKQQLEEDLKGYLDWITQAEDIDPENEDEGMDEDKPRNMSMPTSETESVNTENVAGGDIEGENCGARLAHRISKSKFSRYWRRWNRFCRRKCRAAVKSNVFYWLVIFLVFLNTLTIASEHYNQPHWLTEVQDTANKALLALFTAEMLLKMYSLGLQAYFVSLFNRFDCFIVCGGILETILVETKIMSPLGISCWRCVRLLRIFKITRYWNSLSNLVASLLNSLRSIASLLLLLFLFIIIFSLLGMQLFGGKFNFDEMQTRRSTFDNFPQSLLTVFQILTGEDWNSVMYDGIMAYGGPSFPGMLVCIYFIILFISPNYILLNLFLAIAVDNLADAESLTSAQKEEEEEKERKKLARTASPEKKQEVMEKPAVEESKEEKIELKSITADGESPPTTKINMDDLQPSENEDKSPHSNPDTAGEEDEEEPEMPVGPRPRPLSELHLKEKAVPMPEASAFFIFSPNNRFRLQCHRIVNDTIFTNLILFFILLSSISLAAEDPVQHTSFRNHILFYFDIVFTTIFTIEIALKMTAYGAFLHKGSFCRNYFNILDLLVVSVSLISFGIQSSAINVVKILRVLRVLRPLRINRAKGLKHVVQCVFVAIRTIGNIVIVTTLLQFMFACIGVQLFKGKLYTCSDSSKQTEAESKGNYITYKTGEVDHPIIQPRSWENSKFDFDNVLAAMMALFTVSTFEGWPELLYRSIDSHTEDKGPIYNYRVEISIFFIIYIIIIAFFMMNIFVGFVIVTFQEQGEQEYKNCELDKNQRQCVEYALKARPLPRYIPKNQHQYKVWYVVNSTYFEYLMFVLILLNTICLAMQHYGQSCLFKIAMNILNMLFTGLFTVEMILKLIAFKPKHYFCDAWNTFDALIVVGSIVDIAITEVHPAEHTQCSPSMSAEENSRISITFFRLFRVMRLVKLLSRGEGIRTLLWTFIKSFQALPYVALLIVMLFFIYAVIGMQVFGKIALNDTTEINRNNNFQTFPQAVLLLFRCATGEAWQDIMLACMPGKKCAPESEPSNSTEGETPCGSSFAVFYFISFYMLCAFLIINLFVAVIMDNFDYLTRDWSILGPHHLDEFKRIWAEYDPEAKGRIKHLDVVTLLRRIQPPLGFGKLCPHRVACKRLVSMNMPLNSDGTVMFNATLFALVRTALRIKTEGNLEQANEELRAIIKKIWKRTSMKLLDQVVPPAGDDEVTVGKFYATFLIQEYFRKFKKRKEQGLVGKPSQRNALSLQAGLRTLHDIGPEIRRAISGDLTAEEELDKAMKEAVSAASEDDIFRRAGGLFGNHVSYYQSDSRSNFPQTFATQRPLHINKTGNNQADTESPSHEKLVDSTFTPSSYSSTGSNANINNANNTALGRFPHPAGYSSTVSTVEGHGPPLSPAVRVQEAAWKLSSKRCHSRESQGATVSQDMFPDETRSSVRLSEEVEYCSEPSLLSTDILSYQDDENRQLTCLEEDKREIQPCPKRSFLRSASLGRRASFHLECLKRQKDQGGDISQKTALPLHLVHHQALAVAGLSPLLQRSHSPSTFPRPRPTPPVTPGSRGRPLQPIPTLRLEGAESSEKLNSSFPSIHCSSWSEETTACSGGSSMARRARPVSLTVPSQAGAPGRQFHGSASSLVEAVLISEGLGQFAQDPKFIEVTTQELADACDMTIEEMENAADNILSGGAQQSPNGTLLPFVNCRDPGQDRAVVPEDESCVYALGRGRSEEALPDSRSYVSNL
T1 sequence (P54290 25-944 partner limits assumed): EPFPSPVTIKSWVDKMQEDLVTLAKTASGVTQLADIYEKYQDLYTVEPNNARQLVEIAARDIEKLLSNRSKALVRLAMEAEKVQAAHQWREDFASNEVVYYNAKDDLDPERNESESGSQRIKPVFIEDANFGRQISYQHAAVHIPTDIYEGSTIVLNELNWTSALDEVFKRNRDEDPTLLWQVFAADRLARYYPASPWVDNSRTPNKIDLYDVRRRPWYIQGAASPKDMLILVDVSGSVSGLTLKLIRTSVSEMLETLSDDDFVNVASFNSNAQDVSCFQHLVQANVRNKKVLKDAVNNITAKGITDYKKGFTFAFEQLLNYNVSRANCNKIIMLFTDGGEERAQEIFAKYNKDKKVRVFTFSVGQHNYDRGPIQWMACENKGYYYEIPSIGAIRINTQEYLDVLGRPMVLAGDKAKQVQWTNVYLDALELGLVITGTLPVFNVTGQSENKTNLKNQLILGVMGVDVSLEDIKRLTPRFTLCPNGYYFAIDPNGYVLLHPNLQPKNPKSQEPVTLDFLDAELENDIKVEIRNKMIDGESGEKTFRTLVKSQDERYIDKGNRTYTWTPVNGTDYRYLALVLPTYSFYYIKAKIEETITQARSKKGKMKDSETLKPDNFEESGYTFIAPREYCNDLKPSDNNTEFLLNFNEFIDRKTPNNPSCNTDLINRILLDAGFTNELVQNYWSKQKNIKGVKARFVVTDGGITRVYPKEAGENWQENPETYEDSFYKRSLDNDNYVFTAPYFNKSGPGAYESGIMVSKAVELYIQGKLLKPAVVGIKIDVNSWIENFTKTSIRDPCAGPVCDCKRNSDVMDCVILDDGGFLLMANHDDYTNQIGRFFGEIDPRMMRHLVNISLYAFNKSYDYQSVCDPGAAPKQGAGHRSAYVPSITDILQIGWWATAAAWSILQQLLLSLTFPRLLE
T1 sequence (P54290 945-1091 partner limits assumed): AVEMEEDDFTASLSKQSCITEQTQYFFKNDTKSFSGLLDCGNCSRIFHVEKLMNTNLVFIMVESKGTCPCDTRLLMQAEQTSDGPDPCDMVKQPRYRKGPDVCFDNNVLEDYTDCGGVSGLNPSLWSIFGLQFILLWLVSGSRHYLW
T1 sequence (P54287 whole entry partner): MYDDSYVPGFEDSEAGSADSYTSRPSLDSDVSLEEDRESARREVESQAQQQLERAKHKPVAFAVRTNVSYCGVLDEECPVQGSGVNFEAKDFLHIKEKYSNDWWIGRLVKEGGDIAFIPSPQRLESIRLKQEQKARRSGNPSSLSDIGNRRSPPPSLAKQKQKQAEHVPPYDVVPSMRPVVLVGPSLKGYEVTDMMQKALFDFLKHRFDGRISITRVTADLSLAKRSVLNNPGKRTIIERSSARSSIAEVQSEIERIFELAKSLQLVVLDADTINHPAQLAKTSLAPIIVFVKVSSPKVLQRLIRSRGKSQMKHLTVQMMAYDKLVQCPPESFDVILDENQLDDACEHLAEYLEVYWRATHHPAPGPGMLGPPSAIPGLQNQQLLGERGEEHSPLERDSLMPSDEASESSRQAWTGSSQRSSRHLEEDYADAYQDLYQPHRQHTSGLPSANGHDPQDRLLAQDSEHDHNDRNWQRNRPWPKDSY

Row | SMILES | IC50 [2] [µM] | IC50 [1] [µM] | SCG Na, % blockage at 10 μM [1] [% @ 10] | SCG Na, % blockage at 1 μM ([1]; at 1 μM) [% @ 1]
1 | CC(C)C[C@H](NCC1CCCCC1)C(=O)NCCCC(c1ccc(F)cc1)c1ccc(F)cc1 [Example 8, (S)-2-(Cyclohexylmethyl-amino)-4-methyl-pentanoic acid [4,4-bis-(4-fluoro-phenyl)-butyl]-amide monohydrochloride] | 0.45 |  | 94 | 
2 | CC(C)C[C@H](N)C(=O)NCCCC(c1ccc(F)cc1)c1ccc(F)cc1 [Example 7, (S)-2-Amino-4-methyl-pentanoic acid [4,4-bis-(4-fluoro-phenyl)-butyl]-amide monohydrochloride] | 0.28 |  |  | 
3 | CC(C)=CCN[C@@H](CC(C)C)C(=O)NCCCC(c1ccc(F)cc1)c1ccc(F)cc1 [Example 9, (S)-4-Methyl-2-(3-methyl-but-2-enylamino)-pentanoic acid [4,4-bis-(4-fluoro-phenyl)-butyl]-amide monohydrochloride] | 0.39 | 8.5 |  | 
4 | CN[C@@H](CC(C)C)C(=O)NCCCC(c1ccc(F)cc1)c1ccc(F)cc1 [Example 12, (S)-4-Methyl-2-methylamino-pentanoic acid [4,4-bis-(4-fluoro-phenyl)-butyl]-amide monohydrochloride] | 0.6 |  | 87 | 
5 | CC(C)C[C@@H](C(=O)NCCCC(c1ccc(F)cc1)c1ccc(F)cc1)N(C)Cc1ccc(C(C)(C)C)cc1.Cl [Example 14, (S)-2-[(4-tert-Butyl-benzyl)-methyl-amino]-4-methyl-pentanoic acid [4,4-bis-(4-fluoro-phenyl)-butyl]-amide monohydrochloride] | > 3 |  |  | 
6 | CC(C)CCN(C)[C@@H](CC(C)C)C(=O)NCCCC(c1ccc(F)cc1)c1ccc(F)cc1 [Example 28, (S)-4-Methyl-2-[methyl-(3-methyl-butyl)-amino]-pentanoic acid [4,4-bis-(4-fluoro-phenyl)-butyl]-amide monohydrochloride] | 0.29 |  | 90 | 5

The next lines start with results.

Row | IC50 [2] [µM] | IC50 [1] [µM] | SMILES | SCG Na, % blockage at 10 μM [1] [% @ 10] | SCG Na, % blockage at 1 μM ([1]; at 1 μM) [% @ 1]
7 | 0.36 |  | CC(C)[C@H](NC(=O)N1CCCCCC1)C(=O)N1CCN(C(c2ccc(F)cc2)c2ccc(F)cc2)CC1 [Example 33, (S)-Azepane-1-carboxylic acid (1-{4-[bis-(4-fluoro-phenyl)-methyl]-piperazine-1-carbonyl}-2-methyl-propyl)-amide] | 22 | 
8 | 0.89 |  | CC(C)C[C@@H](C(=O)N1CCN(C(c2ccc(F)cc2)c2ccc(F)cc2)CC1)N(C)C [Example 39, (S)-1-{4-[Bis-(4-fluoro-phenyl)-methyl]-piperazin-1-yl}-2-dimethylamino-4-methyl-pentan-1-one dihydrochloride] |  | 
9 | 1.2 |  | CC(C)C[C@H](NC(=O)N1CCCCCC1)C(=O)N1CCN(C(c2ccc(F)cc2)c2ccc(F)cc2)CC1 [Example 31, (S)-Azepane-1-carboxylic acid (1-{4-[bis-(4-fluoro-phenyl)-methyl]-piperazine-1-carbonyl}-3-methyl-butyl)-amide] |  | 
10 | 0.27 |  | CC(C)C[C@@H](CN1CCN(C(c2ccc(F)cc2)c2ccc(F)cc2)CC1)NC(=O)N1CCCCCC1 [Example 36, (S)-Azepane-1-carboxylic acid (1-{4-[bis-(4-fluoro-phenyl)-methyl]-piperazin-1-ylmethyl}-3-methyl-butyl)-amide] | 81 | 
